Results taken from patent publication US8580773B2, “Small-molecule inhibitors of the androgen receptor” (The Regents of the University of California, priority 2008, dated 2013).
Entries after “also recorded” stand apart in the source; their conditions may differ. Counter-ions that a name gives are not always drawn.

What was measured:
LNCaP cells = assay: Cell proliferation (DNA content, DAPI) in LNCaP cells; format: cell-based, human; settings: 3 nM DHT, PP 100 nM, HH 100 nM, BiC 1 μM, seven days, hydrochloride
Description: (§1) LN-AR cells were created by retroviral infection of a high-expressing AR vector into LNCaP cells, and proliferate independent of androgen in cell culture, unlike their parental line (Chen, C. D., et al., Molecular determinants of resistance to antiandrogen therapy. Nat Med, 2004. 10(1): p. 33-9). HEK293 cells were used as a control. Cells were transferred to charcoal-stripped media two days before they were split and plated in quadruplicate at a density of approximately 20,000 cells/well in 48-well plates. […] Media were changed every day, using a single preparation to ensure consistent compound concentrations. Proliferation was determined by measuring the DNA content of the cells in each well. Each day, the cells in four wells were fixed in 100% cold methanol, followed by staining for 5 min at RT with 0.2 ng/mL 4′,6-diamidino-2-phenylindole (DAPI) in PBS. The cells were washed once in PBS, then read on a fluorescence plate reader using 365/439 excitation/emission wavelengths. LAPC4 and LNCaP cells proliferated to a much greater degree in the presence of DHT, while LN-AR cells proliferated in the presence and absence of DHT.

AR = biological target: T1, AR (Homo sapiens, UniProt P10275, T878A); assay: DHT titration against inhibitor, PSA-luciferase reporter in LNCaP cells (competitive vs non-competitive); format: cell-based; settings: moderate dose of inhibitor, DHT titrated, hydrochloride
T1 construct: that each express endogenous AR; endogenous in cells; host or cells: LNCaP
T1 sequence (P10275 whole entry T878A): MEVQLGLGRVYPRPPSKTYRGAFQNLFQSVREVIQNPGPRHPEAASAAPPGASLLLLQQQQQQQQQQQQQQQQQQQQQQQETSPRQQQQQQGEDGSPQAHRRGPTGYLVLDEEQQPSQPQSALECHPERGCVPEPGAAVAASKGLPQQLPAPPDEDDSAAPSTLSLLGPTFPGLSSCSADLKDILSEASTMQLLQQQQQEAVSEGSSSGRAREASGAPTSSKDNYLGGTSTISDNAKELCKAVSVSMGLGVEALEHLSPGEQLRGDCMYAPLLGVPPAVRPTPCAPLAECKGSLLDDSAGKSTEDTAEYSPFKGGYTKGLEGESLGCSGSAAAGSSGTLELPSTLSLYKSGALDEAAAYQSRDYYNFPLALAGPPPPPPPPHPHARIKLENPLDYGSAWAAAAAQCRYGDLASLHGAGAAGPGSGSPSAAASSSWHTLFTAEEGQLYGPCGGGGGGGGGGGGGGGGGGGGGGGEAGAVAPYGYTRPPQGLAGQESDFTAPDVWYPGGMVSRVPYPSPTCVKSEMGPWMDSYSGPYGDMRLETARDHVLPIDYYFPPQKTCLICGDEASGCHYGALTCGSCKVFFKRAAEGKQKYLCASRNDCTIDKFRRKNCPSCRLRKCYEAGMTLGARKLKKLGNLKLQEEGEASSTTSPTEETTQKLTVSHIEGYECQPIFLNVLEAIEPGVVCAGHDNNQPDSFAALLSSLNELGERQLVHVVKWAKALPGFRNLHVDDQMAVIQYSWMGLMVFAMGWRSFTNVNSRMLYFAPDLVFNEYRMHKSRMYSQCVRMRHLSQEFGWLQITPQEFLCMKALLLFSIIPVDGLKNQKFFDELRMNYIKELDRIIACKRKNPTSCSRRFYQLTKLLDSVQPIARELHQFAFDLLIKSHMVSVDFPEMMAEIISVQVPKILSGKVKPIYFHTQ

human androgen receptor = biological target: T2, human androgen receptor (Homo sapiens, UniProt P10275); assay: Screen of 1040 FDA-approved drugs and natural products for AR antagonists (MMTV-luciferase transcription assay and C-AR-Y FRET conformation assays); format: cell-based; settings: test compounds at 10 μM, 10 nM DHT, 24 hours; validated by dose-response
T2 construct: expressed in transfected cells; host or cells: HEK293 and LAPC4 stably expressing C-AR-Y; HEK293 transiently transfected with native AR
T2 sequence (P10275 1-920): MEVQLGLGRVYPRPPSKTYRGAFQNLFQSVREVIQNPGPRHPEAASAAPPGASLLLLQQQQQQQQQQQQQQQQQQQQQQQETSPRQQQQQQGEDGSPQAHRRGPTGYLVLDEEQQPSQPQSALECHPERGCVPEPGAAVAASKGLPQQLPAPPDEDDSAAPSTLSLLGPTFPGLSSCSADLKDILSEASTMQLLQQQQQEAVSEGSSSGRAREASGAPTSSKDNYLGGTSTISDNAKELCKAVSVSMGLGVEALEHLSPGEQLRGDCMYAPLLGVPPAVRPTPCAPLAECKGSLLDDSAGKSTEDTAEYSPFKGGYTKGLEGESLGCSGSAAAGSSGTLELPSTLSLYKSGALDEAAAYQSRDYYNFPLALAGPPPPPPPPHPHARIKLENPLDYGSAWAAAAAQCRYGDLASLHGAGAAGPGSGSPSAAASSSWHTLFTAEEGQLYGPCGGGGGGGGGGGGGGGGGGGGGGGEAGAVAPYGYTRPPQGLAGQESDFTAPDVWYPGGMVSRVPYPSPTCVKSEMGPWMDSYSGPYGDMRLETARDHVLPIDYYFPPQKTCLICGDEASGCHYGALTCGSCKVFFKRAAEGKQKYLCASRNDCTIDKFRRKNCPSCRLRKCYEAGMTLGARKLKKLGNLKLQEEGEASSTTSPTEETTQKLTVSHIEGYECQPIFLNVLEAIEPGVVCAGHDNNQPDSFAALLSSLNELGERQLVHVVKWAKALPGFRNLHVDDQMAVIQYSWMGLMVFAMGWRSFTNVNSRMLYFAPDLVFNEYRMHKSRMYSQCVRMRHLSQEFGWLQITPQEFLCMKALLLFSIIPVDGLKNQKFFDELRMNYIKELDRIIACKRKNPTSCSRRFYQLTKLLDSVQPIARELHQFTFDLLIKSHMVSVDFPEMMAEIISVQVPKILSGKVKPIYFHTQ
Procedure: A library assembled by the NINDS was screened. The library consisted of 1040 FDA-approved drugs and natural products. A basic strategy to select and compare compounds from each of the primary screens was established (FIG. 1).
The transcription assay was conducted by transfecting 10 cm plates of HEK293 cells with plasmids encoding MMTV-luciferase, SV40-renilla luciferase, and native AR. […] FRET is fluorescence resonance energy transfer between cyan and yellow fluorescent protein derivatives (CFP, YFP) that are fused to the amino and carboxyl termini of the human androgen receptor. When ligand activates the receptor, a conformational change takes place that brings the CFP and YFP into close proximity, thereby allowing FRET to occur. This spectroscopic change is detected using a fluorescence plate reader.
For the transcription assay, transfected cells were pooled before being plated into 96-well dishes with the test compounds at 10 μM. […] Cell and compound transfers were accomplished with a liquid handling robot. Cells were cultured for 24 hours in the presence of 10 nM DHT and the test compounds. After 24 hours, cells were either lysed by freeze-thaw (transcription assay), or fixed in 4% paraformaldehyde for reading on the FPR (FRET assays). Each compound was tested in duplicate in the initial screen.
The compounds were sorted on the basis of anti-androgen effects. […] This eliminated situations in which one test gave a strong response, and the replicate had none. […] For the FRET assays, toxic compounds were easily detected because of their effect on raw CFP and YFP signal, and compounds that reduced this signal below two standard deviations were eliminated.
The top 50 compounds identified in each primary assay were then tested in the other two assays.

HEK293 cells = assay: Cell proliferation (DNA content, DAPI) in control HEK293 cells; format: cell-based; settings: PP 100 nM, HH 100 nM, BiC 1 μM
Description: as §1

LAPC4 cells = assay: Cell proliferation (DNA content, DAPI) in LAPC4 cells; format: cell-based, human; settings: 3 nM DHT, PP 100 nM, HH 100 nM, BiC 1 μM, seven days
Description: as §1

[1] = Pharmacokinetics in mice, drug levels by mass spectrometry; format: in vivo
Description: Serum samples were obtained at fixed time intervals, and the drug levels determined by mass spectrometry.

## Cc1nccc2c1[nH]c1cc(O)ccc12 [HH, harmol hydrochloride]
LNCaP cells
  Inhibition of cell growth: inhibited significantly; also recorded: growth-inhibitory properties
AR
  Mode of antagonism on DHT titration: inhibited maximal DHT-induced activation; also recorded: consistent with a non-competitive antagonist
Human androgen receptor
  Anti-androgen activity in screen: previously unrecognized anti-androgen activity
HEK293 cells
  Non-specific growth inhibition: Neither compound exhibited non-specific growth inhibition
LAPC4 cells
  Inhibition of cell growth: not effective
[1]; mice, single IP injection 5 mg/kg, 1 hr
  Plasma concentration: 5.0 ng/mL
[1]; wild-type FVB mice, single intraperitoneal injection
  Clearance / half-life (in words): rapidly cleared
